System: sustained AF maintained during continuous vagal nerve stimulation
Experiment: Canine vagal-AF model: termination of sustained AF by drug infused IV
Assay type: in vivo, dog
Details: for Effective doses for terminating AF: anesthetized mongrel dogs, IV over 5 min, cell format number of dogs-dose
Description: Mongrel dogs of either sex weighing 15-49 kg are anesthetized with morphine (2 mg/kg im initially, followed by 0.5 mg/kg IV every 2 h) and α-chloralose (120 mg/kg IV followed by an infusion of 29.25 mg/kg/h; St.-Georges et al., 1997). Dogs are ventilated mechanically with room air supplemented with oxygen via an endotracheal tube at 20 to 25 breaths/minute with a tidal volume obtained from a nomogram. Arterial blood gases are measured and kept in the physiological range (SAO2>90%, pH 7.30-7.45). Catheters are inserted into the femoral artery for blood pressure recording and blood gas measurement, and into both femoral veins for drug administration and venous sampling. Catheters are kept patent with heparinized 0.9% saline solution. Body temperature is maintained at 37-40° C. with a heating blanket.
The heart is exposed via a medial thoracotomy and a pericardial cradle is created. Three bipolar stainless steel, Teflon™-coated electrodes are inserted into the right atria for recording and stimulation, and one is inserted into the left atrial appendage for recording. A programmable stimulator (Digital Cardiovascular Instruments, Berkeley, Calif.) is used to stimulate the right atrium with 2 ms, twice diastolic threshold pulses. Two stainless steel, Teflon™-coated electrodes are inserted into the left ventricle, one for recording and the other for stimulation. […]
Drug effects to terminate sustained AF maintained during continuous vagal nerve stimulation are assessed. […] The vagal stimulation voltage is adjusted under control conditions, and then readjusted after each treatment to maintain the same bradycardic effect. […]
Diastolic threshold current is determined at a basic cycle length of 300 ms by increasing the current 0.1 mA incrementally until stable capture is obtained. […] Atrial and ventricular ERP is measured with the extrastimulus method, over a range of S1S2 intervals at a basic cycle length of 300 ms. […] Diastolic threshold and ERP are determined in duplicate and averaged to give a single value. […]

## O=C(NCC1CCCCN1)c1cc(OCC(F)(F)F)ccc1OCC(F)(F)F (stereo not drawn) [Flecainide]
AF terminated at this dose in 1 dog
  Effective doses for terminating AF: 10 µmol/kg
AF terminated at this dose in 4 dogs
  Effective doses for terminating AF: 2.5 µmol/kg
Control in the present study, compared with earlier reports
  Effectiveness as a control in terminating vagal AF: comparable to that previously reported
